Values quoted from earlier work as cited in patent US20220346434A1, “ORAL COMPOSITIONS AND METHODS OF MANUFACTURE” (NICOVENTURES TRADING LIMITED, priority 2021, published 2022).

Key:
[1] = for solubility in water / aqueous environment: water or aqueous environment (e.g., saliva)
[2] = converts via isomerization into trans-bixin (β-bixin)

Row | solubility in water / aqueous environment [1] | chemical stability when isolated [2] | solubility in fats and alcohols ([1]; fats and alcohols) | Structure (SMILES)
1 | water soluble |  |  | CC(/C=C/C=C(C)/C=C/C(=O)O)=C\C=C\C=C(C)\C=C\C=C(C)\C=C\C(=O)O (stereo in doubt) [norbixin, (2E,4E,6E,8E,10E,12E,14E,16E,18E)-4,8,13,17-tetramethylicosa-2,4,6,8,10,12,14,16,18-nonaenedioic acid]
2 | insoluble in water | chemically unstable when isolated | soluble in fats and alcohols | COC(=O)/C=C/C(C)=C\C=C\C(C)=C\C=C\C=C(C)\C=C\C=C(C)\C=C\C(=O)O [bixin]

Row | Structure (SMILES) | solubility in water / aqueous environment [1] | chemical stability when isolated [2] | solubility in fats and alcohols ([1]; fats and alcohols)
3 | C=C(C)[C@@H]1CCC(C)=C[C@H]1c1c(O)cc(CCCCC)cc1O [CBD, cannabidiol, reference compound] | insoluble in an aqueous environment |  | 
